We go through 3 molecules from patent US6160175A, “Naphthyl acetamides as sPLA2 inhibitors” (Eli Lilly and Company, priority 1996, dated 2000).

The target of this experiment is T1, recombinant human secreted phospholipase A2 (Homo sapiens, UniProt P14555).
T1 sequence (P14555 21-144): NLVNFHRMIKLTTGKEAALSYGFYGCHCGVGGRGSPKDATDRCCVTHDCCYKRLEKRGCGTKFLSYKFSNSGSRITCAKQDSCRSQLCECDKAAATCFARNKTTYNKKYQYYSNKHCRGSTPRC
Put plainly: Chromogenic assay; Human Secreted Phospholipase A2 Inhibition Tests. The format is biochemical. Particulars: racemic diheptanoyl thio-PC substrate 1 mM, Triton X-100 0.29 mM, pH 7.5, 40° C., 30 minutes, 405 nm; read-out: Inhibition of human secreted PLA2, IC50 ± mean deviation (3-4 tests). An excerpt: The following chromogenic assay procedure was used to identify and evaluate inhibitors of recombinant human secreted phospholipase A2. The assay described herein has been adapted for high volume screening using 96 well microtiter plates. A general description of this assay method is found in the article, "Analysis of Human Synovial Fluid Phospholipase A2 on Short Chain Phosphatidylcholine-Mixed Micelles: Development of a Spectrophotometric Assay Suitable for a Microtiterplate Reader", by Laure J. Reynolds, Lori L. Hughes, and Edward A. Dennis, Analytical Biochemistry, 204, pp. 190-197, 1992 (the disclosure of which is incorporated herein by reference):
A measured volume of racemic dipheptanoyl thio PC supplied in chloroform at a concentration of 100 mg/ml is taken to dryness and redissolved in 10 millimolar TRITON X-100™ nonionic detergent aqueous solution. Reaction Buffer is added to the solution, then DTNB to give the Reaction Mixture.
The reaction mixture thus obtained contains 1 mM diheptanoly thio-PC substrate, 0.29 mm Triton X-100™ detergent, and 0.12 mm DTMB in a buffered aqueous solution at pH 7.5.
1. Add 0.2 ml reaction mixture to all wells;
2. Add 10 ul test compound (or solvent blank) to appropriate wells, mix 20 seconds;
3. Add 50 nanograms of sPLA2 (10 microliters) to appropriate wells;
4. Incubate plate at 40° C. for 30 minutes;
5. Read absorbance of wells at 405 nanometers with an automatic plate reader.
All compounds were tested in triplicate. Typically, compounds were tested at a final concentration of 5 ug/ml. […] Lack of color development at 405 nanometers evidenced inhibition. Compounds initially found to be active were reassayed to confirm their activity and, if sufficiently active, IC50 values were determined. […] In all cases, % inhibition measured at 405 nanometers generated by enzyme reactions containing inhibitors relative to the uninhibited control reactions was determined. […] IC50 were determined by plotting log concentration versus inhibition values in the range from 10-90% inhibition.

SMILES strings stand for the structures.

For `NC(=O)Cc1ccc(Cc2ccccc2)c2ccccc12` [Compound A, 4-Benzyl-1-naphphylacetamide], the IC50 was 0.87 µM.

Regarding `O=C(O)Cc1ccc(Oc2ccccc2)c2ccccc12` [Compound B, 4-Phenoxynaphth-1-yl acetic acid], the IC50 is 51 µM.

With `NC(=O)Cc1ccc(Oc2ccccc2)c2ccccc12` [Compound C, 4-Phenoxynaphth-1-yl acetamide], the IC50 stood at 4.4 µM.
